# Source: PubChem BioAssay (NCI)
#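 1) Cells in 96-well plates. 2) Compound, 48 h, 5 concentrations. 3) Linear interpolation between surrounding doses. 4) Unreached endpoint = highest concentration. The concentration for full growth arrest is given as TGI.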
# Experiments:
# Experiment in all cases: inhibition of tumour cell growth, NCI panel, 48 h
# LOX IMVI melanoma = tested on: LOX IMVI melanoma
# COLO 205 colon = tested on: COLO 205 colon
# HOP-92 NSCLC = tested on: HOP-92 NSCLC
# SK-MEL-5 melanoma = tested on: SK-MEL-5 melanoma
# UACC-62 melanoma = tested on: UACC-62 melanoma
# HCC-2998 colon = tested on: HCC-2998 colon
# SK-MEL-2 melanoma = tested on: SK-MEL-2 melanoma
# SNB-19 CNS = tested on: SNB-19 CNS
# HCT-116 colon = tested on: HCT-116 colon
# HT29 colon = tested on: HT29 colon
# MALME-3M melanoma = tested on: MALME-3M melanoma
# SR leukemia = tested on: SR leukemia
# UO-31 renal = tested on: UO-31 renal
SMILES,TGI (LOX IMVI melanoma) [µM],TGI (COLO 205 colon) [µM],TGI (HOP-92 NSCLC) [µM],TGI (SK-MEL-5 melanoma) [µM],TGI (UACC-62 melanoma) [µM],TGI (HCC-2998 colon) [µM],TGI (SK-MEL-2 melanoma) [µM],TGI (SNB-19 CNS) [µM],TGI (HCT-116 colon) [µM],TGI (HT29 colon) [µM],TGI (MALME-3M melanoma) [µM],TGI (SR leukemia) [µM],TGI (UO-31 renal) [µM]
c1ccc(-n2nc3ccc4nonc4c3n2)cc1,> 100,> 100,> 100,> 100,> 100,> 100,> 100,> 100,> 100,> 100,> 100,> 100,
CCOC(=O)[C@@]12C[C@](/C=C/OC)(O[Si](C)(C)C)[C@@]13c1cc(OC)c(OC)cc1CCN3C(=O)C2O (stereo not given in full),> 100,> 100,> 100,> 100,> 100,,> 100,> 100,> 100,> 100,> 100,> 100,> 100
O=P1(Oc2ccccc2)N(CCCl)CCN1c1ccccc1 (stereo not given),> 100,> 100,> 100,> 100,> 100,> 100,> 100,> 100,> 100,> 100,> 100,> 100,> 100
C[n+]1c(-c2ccc(/C=N/NC(=O)C(=O)N/N=C/c3ccc(-c4cn5ccsc5[n+]4C)cc3)cc2)cn2ccsc21,,> 100,,> 100,,> 100,,> 100,> 100,> 100,,> 100,> 100
COC(CC1(/C=C/O[Si](C(C)C)(C(C)C)C(C)C)C(=O)N(C)c2ccccc21)OC (stereo not given),> 100,> 100,> 100,> 100,> 100,> 100,> 100,> 100,> 100,,,> 100,> 100
CC(=O)NC1=C(NCCN(C)C)C(=O)c2ccccc2C1=O,> 50,17.7,,14.1,22.1,> 50,> 50,> 50,18.6,38.6,14.3,> 50,> 50
Oc1ccc(N=C2CCC(=C(c3ccccc3)c3ccc(Nc4ccc(O)cc4)cc3)CC2)cc1,> 100,> 100,> 100,> 100,> 100,> 100,> 100,> 100,> 100,> 100,,> 100,> 100
CC(C)(C)Nc1noc(=O)n1C(C)(C)C,> 100,> 100,> 100,> 100,> 100,,> 100,> 100,> 100,> 100,> 100,> 100,> 100
COC1=CCC=C(C[C@@H]2NCCc3cc(OC)c(OC)cc32)C1,> 100,> 100,> 100,> 100,> 100,> 100,> 100,> 100,> 100,> 100,> 100,,> 100
CCc1c(Cc2[nH]c(Cc3[nH]c(C=O)c(C)c3CC)c(CC)c2CC)[nH]c(C=O)c1C,> 100,> 100,,> 100,> 100,> 100,,> 100,> 100,> 100,> 100,> 100,> 100
O=C(N=Nc1cccc(Cl)c1)NNc1cccc(Cl)c1,26.8,,,38.4,24.1,28.9,24.6,> 100,21.2,43.5,39.6,90.7,45.5
CCOC(=O)[C@@]12C3C=CC(CC3)[C@]1(C(=O)c1ccccc1)C(=O)C(=O)N2c1ccccc1 (stereo not given in full),,> 100,> 100,> 100,> 100,> 100,> 100,> 100,> 100,> 100,> 100,> 100,> 100
COC(=O)[C@@H]1CN(C(C)=O)C(=O)N1C(=O)OCc1ccccc1,> 100,> 100,> 100,> 100,,> 100,> 100,> 100,> 100,> 100,> 100,> 100,> 100
COc1ccc(OCc2ccc3nc(-c4ccccc4)c(Cl)nc3c2)cc1,> 100,81.5,46.7,25.8,,> 100,> 100,68.2,> 100,> 100,37.3,> 100,> 100
CC(C)(C)OC(=O)NCCc1cccc2c1oc1c(CCC(=O)O)cccc12,> 100,> 100,> 100,> 100,> 100,> 100,> 100,> 100,> 100,> 100,> 100,> 100,> 100
